Test results: patent US12098153B2, “Small molecule inhibitors targeting Clostridioides difficile sporulation” (UNIVERSITY OF SOUTH FLORIDA, priority 2021, dated 2024)

molecular target: T1, PBP3 (CDR20291_1067; soluble construct) (Clostridioides difficile, UniProt A0A9R0CE13); experiment: Bacillin (bocillin) inhibition assay, PBP3; type: biochemical; settings: FIGS. 6A-6F; 1 μM protein, 15 min preincubation at 37° C., 20 μM bocillin
T1 construct: modified pETGST vector with TEV site, E. coli BL21(DE3) pLysS; tag removed with TEV
Method: FIGS. 6A-6F show the crystal structure of PBP3 and the chemical structures of DBO sporulation inhibitors, wherein * indicates >50%, ** indicates >90%, and ***>95%.
(§1) Reactions were performed in a 96-well polystyrene plate with a final volume of 60 μl at 37° C. in 1× tris-buffered saline (20 mM Tris, 150 mM NaCl). […] Protein was then diluted and added to the well for a final concentration of 1 μM and incubated for 15 minutes at 37° C. 1 μL of bocillin (BOCILLIN™ FL Penicillin, Sodium Salt, Thermo Fisher Scientific) was added to each well for a final concentration of 20 μM, and incubated for 10 minutes at 37° C. Reactions were killed with 10 μL of 6×SDS loading buffer and pooled or directly loaded onto a 15-well Novex Wedgewell 8% Tris-Glycine Gels and ran at 175 V for ˜1 hour. Gels were then imaged (Biorad) for 6 seconds with the fluorescein blot filter setting and analyzed using ImageJ. All values were normalized to background intensity and divided by the average of three control intensities (no inhibitor) for % inhibition value. Assays were performed in duplicate or triplicate and IC50 values were calculated using a 3-parameter nonlinear regression.
(§2) The coding sequence corresponding to the soluble constructs of CDR20291_1067 (PBP3), CDR20291_0985 (PBP2) and CDR20291_2544 (CdSpoVD) were amplified from C. difficile R20291 genomic DNA The expression vector was modified from pETGST, in which the thrombin cleavage site was replaced by TEV (named pETGSTTEV) or ULP1 (named pETGSTSUMO) cleavage site. The vector was digested and the PCR fragments for each protein was inserted into the multi-clone site accordingly. SpovD 38-583 inserted into the NheI/XhoI site of the pETGSTSUMO vector. Cloned vector was then transformed into BL21(DE3) pLysS Escherichia coli (E. coli). Standard overnight cultures were grown in LB media containing chloramphenicol and kanamycin and used to inoculate 1 L LB cultures.
Cultures were grown until the optical density (OD600) reached ˜0.7. Protein expression was then induced with 0.5 mM isopropyl-β-d-thiogalactopyranoside (IPTG) overnight at 20° C. Cells were harvested via centrifugation at 4000×g for 10 minutes at 4° C. The cell pellet was suspended with a solution of 20 mM Tris pH 8.0, 200 mM NaCl, 20 mM imidazole, and one dissolved Thermo Scientific™ Pierce Protease Inhibitor Tablets. Cells were lysed with a sonicator using a 10 second sonication/15 second rest cycle for 15 minutes. Cell lysate was centrifuged at 45,000×g for 35 minutes and supernatant was loaded onto a HisTrap affinity column (GE Healthcare). A linear gradient of buffer B (20 mM Tris pH 8.0, 300 mM NaCl, 500 mM imidazole, and 10% glycerol) was applied to elute the recombinant protein which usually occurred at 30% buffer B. These fractions were pooled and buffer exchanged three times into protease buffer (20 mM Tris pH 8.0, 10% glycerol) using an Amicon Ultra centrifugal filter (Sigma-Aldrich). Purified His6-tagged TEV protease was added to all proteins at a 1:20 ratio except for CdSpoVD and incubated overnight at 4° C. Pure His6-tagged ULP1 protease was added to CdSpoVD at 1:20 ratio and incubated overnight at 4° C. The digested protein was re-loaded onto the HisTrap affinity column. Flowthrough was collected, concentrated, and loaded to a HiLoad 16/60 Superdex 75 size exclusion column (GE Healthcare) where it ran at a flow rate of 0.5 ml/min. Peak fractions were combined and purity assessed (>95%) with gel-electrophoresis. […]

T1 sequence (A0A9R0CE13 entry or part of it): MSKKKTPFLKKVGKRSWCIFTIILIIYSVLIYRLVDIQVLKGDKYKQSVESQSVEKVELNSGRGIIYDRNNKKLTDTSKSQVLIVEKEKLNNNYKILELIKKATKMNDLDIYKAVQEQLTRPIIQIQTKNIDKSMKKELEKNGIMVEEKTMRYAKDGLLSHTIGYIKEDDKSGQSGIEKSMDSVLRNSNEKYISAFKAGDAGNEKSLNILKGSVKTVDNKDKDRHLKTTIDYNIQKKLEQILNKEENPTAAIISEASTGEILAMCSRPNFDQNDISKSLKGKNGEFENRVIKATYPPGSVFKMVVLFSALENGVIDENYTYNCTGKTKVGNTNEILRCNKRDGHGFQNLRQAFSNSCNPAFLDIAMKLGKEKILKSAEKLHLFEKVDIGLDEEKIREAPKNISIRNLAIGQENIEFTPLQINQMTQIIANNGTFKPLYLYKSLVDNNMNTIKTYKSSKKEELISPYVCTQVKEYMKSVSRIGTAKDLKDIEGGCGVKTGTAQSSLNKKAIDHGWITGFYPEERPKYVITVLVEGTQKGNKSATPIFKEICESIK

| IC50 | SMILES |
| --- | --- |
| 5.38 µM | NC(=O)[C@@H]1CC[C@@H]2CN1C(=O)N2OS(=O)(=O)O [Avibactam] |
| 2.24 µM | O=C(Nc1cccc2ccccc12)[C@@H]1CC[C@@H]2CN1C(=O)N2OS(=O)(=O)O [Spo11] |
| 2.01 µM | O=C(Nc1ccccc1)[C@@H]1CC[C@@H]2CN1C(=O)N2OS(=O)(=O)O [Spo6] |
| 0.69 µM | O=C(Nc1ccc(-n2cccn2)cc1)[C@@H]1CC[C@@H]2CN1C(=O)N2OS(=O)(=O)O [Spo12] |
| 4.86 µM | O=C(Nc1ccccc1)[C@H](NC(=O)[C@@H]1CC[C@@H]2CN1C(=O)N2OS(=O)(=O)O)c1ccccc1 [Spo9] |

molecular target: T2, SpoVD (CdSpoVD, CDR20291_2544; soluble construct SpovD 38-583) (Clostridioides difficile, UniProt A0A9R0BM53); experiment: Bacillin (bocillin) inhibition assay, SpoVD; type: biochemical; settings: not given
T2 construct: pETGSTSUMO vector (NheI/XhoI), E. coli BL21(DE3) pLysS; fusion tag removed with ULP1
Method: FIG. 2 is a table of IC50 values of select $-lactam antibiotics against SpoVD, their percentage inhibition of sporulation, and the concentration at which they were tested (½ MIC).
FIGS. 4A-4F show chemical structures of DPO sporulation inhibitors, their biochemical inhibition against SpoVD and their in vitro sporulation inhibition, wherein * indicates >50%, ** indicates >90%, and ***>95%.
as §1, §2
Cultures were grown until the optical density (OD600) reached ˜0.7. Protein expression was then induced with 0.5 mM isopropyl-β-d-thiogalactopyranoside (IPTG) overnight at 20° C. Cells were harvested via centrifugation at 4000×g for 10 minutes at 4° C. The cell pellet was suspended with a solution of 20 mM Tris pH 8.0, 200 mM NaCl, 20 mM imidazole, and one dissolved Thermo Scientific™ Pierce Protease Inhibitor Tablets. Cells were lysed with a sonicator using a 10 second sonication/15 second rest cycle for 15 minutes. Cell lysate was centrifuged at 45,000×g for 35 minutes and supernatant was loaded onto a HisTrap affinity column (GE Healthcare). A linear gradient of buffer B (20 mM Tris pH 8.0, 300 mM NaCl, 500 mM imidazole, and 10% glycerol) was applied to elute the recombinant protein which usually occurred at 30% buffer B. These fractions were pooled and buffer exchanged three times into protease buffer (20 mM Tris pH 8.0, 10% glycerol) using an Amicon Ultra centrifugal filter (Sigma-Aldrich). Purified His6-tagged TEV protease was added to all proteins at a 1:20 ratio except for CdSpoVD and incubated overnight at 4° C. Pure His6-tagged ULP1 protease was added to CdSpoVD at 1:20 ratio and incubated overnight at 4° C. The digested protein was re-loaded onto the HisTrap affinity column. Flowthrough was collected, concentrated, and loaded to a HiLoad 16/60 Superdex 75 size exclusion column (GE Healthcare) where it ran at a flow rate of 0.5 ml/min. Peak fractions were combined and purity assessed (>95%) with gel-electrophoresis. The identity of each enzyme was independently characterized with gel-electrophoresis, native-mass spectrometry, bocillin or nitrocefin binding, and/or X-ray crystallography.

T2 sequence (A0A9R0BM53 entry or part of it): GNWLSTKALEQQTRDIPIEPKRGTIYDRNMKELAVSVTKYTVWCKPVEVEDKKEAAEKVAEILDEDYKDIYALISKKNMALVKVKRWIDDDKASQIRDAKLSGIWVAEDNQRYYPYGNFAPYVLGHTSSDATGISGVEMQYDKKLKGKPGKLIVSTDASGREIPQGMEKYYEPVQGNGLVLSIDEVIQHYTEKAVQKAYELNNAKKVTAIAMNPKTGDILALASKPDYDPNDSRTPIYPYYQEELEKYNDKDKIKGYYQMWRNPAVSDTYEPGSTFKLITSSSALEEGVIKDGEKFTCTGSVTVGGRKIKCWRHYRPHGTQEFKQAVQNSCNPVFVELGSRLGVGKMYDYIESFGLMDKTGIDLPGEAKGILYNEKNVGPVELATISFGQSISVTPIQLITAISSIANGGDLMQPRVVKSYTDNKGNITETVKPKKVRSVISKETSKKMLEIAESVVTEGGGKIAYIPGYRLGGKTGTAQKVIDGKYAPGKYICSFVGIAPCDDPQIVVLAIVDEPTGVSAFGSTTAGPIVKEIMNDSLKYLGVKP

| SMILES | IC50 |
| --- | --- |
| CC1(C)S[C@@H]2[C@H](NC(=O)[C@H](N)c3ccccc3)C(=O)N2[C@H]1C(=O)O [Ampicillin] | 2.54 µM |
| CC(=O)OCC1=C(C(=O)O)N2C(=O)[C@@H](NC(=O)Cc3cccs3)[C@H]2SC1 [Cefalothin] | 0.27 µM |
| C[C@H]1[C@H](NC(=O)/C(=N\OC(C)(C)C(=O)O)c2csc(N)n2)C(=O)N1S(=O)(=O)O [Aztreonam] | 1.36 µM |
| CC(C)(O/N=C(\C(=O)N[C@@H]1C(=O)N2C(C(=O)[O-])=C(C[n+]3ccccc3)CS[C@H]12)c1csc(N)n1)C(=O)O [Ceftazidime] | 2.47 µM |

same assay, conditions: FIG. 2; 1 μM protein, 15 min preincubation at 37° C., 20 μM bocillin; read-out: SpoVD IC50

| IC50 | SMILES |
| --- | --- |
| 165 µM | NC(=O)[C@@H]1CC[C@@H]2CN1C(=O)N2OS(=O)(=O)O [Avibactam] |
| 0.94 µM | CO[C@@]1(NC(=O)Cc2cccs2)C(=O)N2C(C(=O)O)=C(COC(N)=O)CS[C@@H]21 [Cefoxitin] |
| 103 µM | O=C(Nc1ccccc1)[C@@H]1CC[C@@H]2CN1C(=O)N2OS(=O)(=O)O [Spo6] |
| 62.5 µM | Nc1nc(/C(=N/O)C(=O)N[C@@H]2C(=O)N3C(C(=O)O)=C(/C=C4\CCN([C@@H]5CCNC5)C4=O)CS[C@H]23)ns1 [Ceftobiprole] |
| 7.83 µM | CO/N=C(\C(=O)N[C@@H]1C(=O)N2C(C(=O)O)=C(COC(C)=O)CS[C@H]12)c1csc(N)n1 [Cefotaxime] |
| 6.12 µM | Cc1onc(-c2ccccc2Cl)c1C(=O)N[C@@H]1C(=O)N2[C@@H]1SC(C)(C)[C@@H]2C(=O)O [Cloxacillin] |
| 53.1 µM | O=C(NCc1ccccc1)[C@@H]1CC[C@@H]2CN1C(=O)N2OS(=O)(=O)O [Spo7] |
| 63.8 µM | O=C(CNC(=O)[C@@H]1CC[C@@H]2CN1C(=O)N2OS(=O)(=O)O)c1ccccc1 [Spo8] |

same assay, conditions: FIGS. 4A-4F; 1 μM protein, 15 min preincubation at 37° C., 20 μM bocillin; read-out: SpoVD IC50

| IC50 | SMILES |
| --- | --- |
| 3.92 µM | O=C(Nc1ccccc1)[C@@H](Cc1ccccc1)NC(=O)[C@@H]1CC[C@@H]2CN1C(=O)N2OS(=O)(=O)O [Spo10] |
| 13 µM | O=C(Nc1ccccc1)[C@H](NC(=O)[C@@H]1CC[C@@H]2CN1C(=O)N2OS(=O)(=O)O)c1ccccc1 [Spo9] |
